Earlier results on one compound are cited in US20170000799A1, “ORAL PHARMACEUTICAL COMPOSITION” (LABORATORIOS DEL DR. ESTEVE, S.A., priority 2013, published 2017).

The conditions of the data set: many organic solvents, including ethanol.

On to `O=C(NC[C@H]1CN(c2ccc(N3CCOCC3=O)cc2)C(=O)O1)c1ccc(Cl)s1` [Rivaroxaban, 5-Cloro-N-[2-oxo-3-[4-(3-oxomorpholin-4-yl)phenyl]-1,3-oxazolidin-5(S)-ylmethyl]-thiophene-2-carboxamide], for which the “solubility in organic solvents” value is recorded as “low solubility”.
